Our source for the Ki and IC50 values is the Kinase Knowledgebase extract (Sharma et al. 2016).

The target in experiment [1] is EGFR (UniProt P00533).
For experiment [2], the target named is EGFR (UniProt P00533). This is another data set of the same source.

Sequence of EGFR (P00533 whole entry, looked up): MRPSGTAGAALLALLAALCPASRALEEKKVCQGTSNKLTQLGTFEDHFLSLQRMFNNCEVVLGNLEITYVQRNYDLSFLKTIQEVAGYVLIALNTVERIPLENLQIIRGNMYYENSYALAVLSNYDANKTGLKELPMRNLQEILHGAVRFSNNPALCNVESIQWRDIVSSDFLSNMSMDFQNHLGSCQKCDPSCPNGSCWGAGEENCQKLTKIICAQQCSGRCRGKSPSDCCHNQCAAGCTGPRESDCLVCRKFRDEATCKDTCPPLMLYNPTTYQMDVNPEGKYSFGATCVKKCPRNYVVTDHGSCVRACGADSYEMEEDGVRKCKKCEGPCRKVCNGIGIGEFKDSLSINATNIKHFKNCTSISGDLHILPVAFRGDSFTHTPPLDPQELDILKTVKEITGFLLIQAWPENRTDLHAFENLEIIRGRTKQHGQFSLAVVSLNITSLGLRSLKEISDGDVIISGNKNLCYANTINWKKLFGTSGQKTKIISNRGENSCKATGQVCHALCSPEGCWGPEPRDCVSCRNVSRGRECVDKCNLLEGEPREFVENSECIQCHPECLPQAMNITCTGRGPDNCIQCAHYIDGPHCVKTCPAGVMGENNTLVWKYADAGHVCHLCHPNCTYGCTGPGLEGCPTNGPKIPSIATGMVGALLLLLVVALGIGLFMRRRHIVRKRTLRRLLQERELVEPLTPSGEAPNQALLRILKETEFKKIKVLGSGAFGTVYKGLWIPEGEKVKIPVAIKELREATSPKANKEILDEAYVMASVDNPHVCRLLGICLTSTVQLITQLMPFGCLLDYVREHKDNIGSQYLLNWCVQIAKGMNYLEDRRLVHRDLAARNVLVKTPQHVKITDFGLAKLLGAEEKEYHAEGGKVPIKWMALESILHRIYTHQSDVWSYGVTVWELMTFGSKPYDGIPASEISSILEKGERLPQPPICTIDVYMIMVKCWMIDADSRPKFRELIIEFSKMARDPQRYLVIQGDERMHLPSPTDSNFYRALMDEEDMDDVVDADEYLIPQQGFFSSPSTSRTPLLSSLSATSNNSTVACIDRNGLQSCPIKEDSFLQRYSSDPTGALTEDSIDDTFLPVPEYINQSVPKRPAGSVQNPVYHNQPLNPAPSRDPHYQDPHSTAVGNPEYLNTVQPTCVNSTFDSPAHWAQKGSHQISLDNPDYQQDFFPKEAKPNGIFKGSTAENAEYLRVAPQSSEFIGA

Molecule `N#C/C(=C\c1ccc([N+](=O)[O-])cc1)C(=O)O` displayed a Ki at EGFR [1] of 1300 µM. `N#CC(C#N)=Cc1cc(O)cc(O)c1` registered a Ki at EGFR [1] of 10 µM. This molecule gave a concentration for half-maximal inhibition (IC50) against EGFR [2] of 160 µM. At EGFR [2], `N#C/C(=C\c1ccc(O)c(O)c1)C(N)=O` yielded an IC50 of 4 µM. With `N#CC(C#N)=C(O)c1cc(O)c(O)c(O)c1`, the IC50 on EGFR [2] is 35 µM. As for `O=C(O)/C=C/c1cc(O)ccc1O`, on EGFR [1], the IC50 amounted to 4.4 µM. Regarding `N#CC(C#N)=Cc1cc(O)c(O)c(O)c1`, on EGFR [1], the Ki amounted to 1 µM. Also, the IC50 on EGFR [2] worked out at 15 µM. `N#C/C(=C\c1ccc(O)c(O)c1)C(=O)O` gave an IC50 at EGFR [2] of 400 µM. Still for that read-out and setting: the same measure for `N#CC(C#N)=C(N)/C(C#N)=C/c1ccc(O)c(O)c1`: 1.8 µM. On the same count and under the same terms, with `COc1cc(C=C(C#N)C#N)cc(O)c1O` the figure was 20 µM.
